Source: patent US20160193162A1 (TIANJIN TAIPU PHARMACEUTICAL SCIENCE & TECHNOLOGY …, priority 2013, published 2016)
Read-outs that look alike come from different tables or passages of the source.

Experiments:
[1] = I-form crystal purity by DSC of raw material after pulverization, grinding, tabletting; type: physicochemical
Excerpt: Change of the crystalline I-form raw material in pulverization, grinding, and tabletting (at a pressure of 10 kg) was detected by DSC (see FIGS. 1-4).

[2] = stability in the process: crystal form purity (DSC) and relevant substances (HPLC); type: physicochemical; conditions: stage of the manufacturing process
Excerpt: Referring to the aforementioned test 6, tablets were manufactured according to formulation and process with hydroxyproplyl methyl cellulose and polyvinylpyrrolindone k30 in a concentration of 15% as a protective agent.
1) Stability in the process: crystal form purity of the tablets was detected using DSC method with crystal forms and relevant substances as evaluation indexes. Regarding detection of relevant substances, HPLC method was adopted using imported drug as a standard.

[3] = test on influencing factors (high temperature, high humidity); type: physicochemical
Experimental: 2) Test on influencing factors: we investigated in combination with formulations of the present invention: the samples were allowed to stand in an open state for 30 days under the conditions of a high temperature of 60° C., a high humidity of RH 92%, and both high temperature and high humidity (40° C., RH75%), respectively.

[4] = solubility of crystalline I-form agomelatine in solvents; type: physicochemical
[5] = powder diffraction of sample tablets after acceleration; type: physicochemical; conditions: sample tablets accelerated for two months
Excerpt: Chinese patent CN1101704763A recites a preparation method of the I-form crystals. […] Changes in crystal forms, on the one hand may result in infringement, and on the other hand may further lead to inconsistency in bioavailability of drugs. Therefore, it is very important to solve the problem of stability of crystal forms during the processes of the tablet manufacture and preservation.

[6] = system: brain nerve cells of an adult rat; conditions: cited from earlier work

| Compound | I-form crystal purity (%) detected by DSC ([1]; after grinding) [%] | I-form crystal purity (%) detected by DSC ([1]; after pulverization) [%] | I-form crystal purity (%) detected by DSC ([1]; after tabletting at a pressure of 10 kg) [%] | I-form crystal purity (%) detected by DSC ([1]; raw material, untreated) [%] | Crystal form purity ([2]; DSC) | Relevant substances ([2]; HPLC) [%] | Crystal form purity % ([3]; 0 day) [%] | Crystal form purity % ([3]; 10 days at a high humidity (RH 92%), open state) [%] | Crystal form purity % ([3]; 10 days at a high temperature (60° C.), open state) [%] | Crystal form purity % ([3]; 10 days at both high temperature and high humidity (40° C., RH75%), open state) [%] | solubility ([4]; in DMSO) | solubility ([4]; in acetonitrile) | solubility ([4]; in ethanol) | solubility ([4]; in methanol) | solubility ([4]; in water) | crystal form by powder diffraction [5] | cell proliferation and neuronal regeneration in hippocampal ventral dentate gyrus ([6]; acute or subacute administration (4 hours or nine weeks)) | cell proliferation and neuronal regeneration in hippocampal ventral dentate gyrus ([6]; long-term (three weeks) administration) |
| --- | --- | --- | --- | --- | --- | --- | --- | --- | --- | --- | --- | --- | --- | --- | --- | --- | --- | --- |
| COc1ccc2cccc(CCNC(C)=O)c2c1 [agomelatine] | 97.5 | 90.0 | 74.3 | 100 | 100 | 0.32 | 100 | 80 | 65 | 35 | very soluble | very soluble | very soluble | very soluble | almost insoluble | almost completely converted to the II form | – | – |
| COc1ccc2cccc(CCNC(C)=O)c2c1 [Agomelatine, agomelatine] | – | – | – | – | – | – | – | – | – | – | – | – | – | – | – | – | no similar situation occurred | increase cell proliferation and neuronal regeneration |
